Converted amounts (≈) assume the structure as drawn.
Assays:
Staphylococcus aureus [1] = experiment: Antibacterial activity against Staphylococcus aureus Smith by micro-broth dilution method; type: functional
Staphylococcus aureus [2] = experiment: Antibacterial activity against methicillin resistant Staphylococcus aureus OIT971 by micro-broth dilution method; type: functional
Streptococcus pneumoniae = experiment: Antibacterial activity against Streptococcus pneumoniae IID553 by micro-broth dilution method; type: functional
Enterococcus faecium = experiment: Antibacterial activity against Enterococcus faecium VanA by micro-broth dilution method; type: functional
Escherichia coli = experiment: Antibacterial activity against Escherichia coli ATCC 25922 by micro-broth dilution method; type: functional
Acinetobacter baumannii = experiment: Antibacterial activity against Acinetobacter baumannii IID876 by micro-broth dilution method; type: functional
Pseudomonas aeruginosa = experiment: Antibacterial activity against Pseudomonas aeruginosa PAO1 by micro-broth dilution method; type: functional
[3] = target: T1, Voltage-gated inwardly rectifying potassium channel KCNH2 (Homo sapiens, UniProt Q12809); experiment: Inhibition of human ERG expressed in CHO cells by patch express assay; type: cell-based
[4] = target: T1, Voltage-gated inwardly rectifying potassium channel KCNH2; experiment: Displacement of MK499 from human ERG
Staphylococcus aureus [5] = experiment: Ratio of MIC for quinolone-resistant Staphylococcus aureus MS5935 to MIC for quinolone-sensitive Staphylococcus aureus MS5935; type: functional
Staphylococcus aureus [6] = experiment: Antibacterial activity against Staphylococcus aureus infected in iv dosed mouse; type: functional
Staphylococcus aureus [7] = experiment: Antibacterial activity against Staphylococcus aureus infected in po dosed mouse; type: functional
[8] = Staphylococcus aureus, Smith, read-out: MIC
[9] = Staphylococcus aureus, OIT971, read-out: MIC
[10] = Streptococcus pneumoniae, IID553, read-out: MIC
[11] = Enterococcus faecium, VanA, read-out: MIC
[12] = Escherichia coli, ATCC 25922, read-out: MIC
[13] = Acinetobacter baumannii, IID876, read-out: MIC
[14] = Pseudomonas aeruginosa, PAO1, read-out: MIC

T1 sequence (Q12809 whole entry): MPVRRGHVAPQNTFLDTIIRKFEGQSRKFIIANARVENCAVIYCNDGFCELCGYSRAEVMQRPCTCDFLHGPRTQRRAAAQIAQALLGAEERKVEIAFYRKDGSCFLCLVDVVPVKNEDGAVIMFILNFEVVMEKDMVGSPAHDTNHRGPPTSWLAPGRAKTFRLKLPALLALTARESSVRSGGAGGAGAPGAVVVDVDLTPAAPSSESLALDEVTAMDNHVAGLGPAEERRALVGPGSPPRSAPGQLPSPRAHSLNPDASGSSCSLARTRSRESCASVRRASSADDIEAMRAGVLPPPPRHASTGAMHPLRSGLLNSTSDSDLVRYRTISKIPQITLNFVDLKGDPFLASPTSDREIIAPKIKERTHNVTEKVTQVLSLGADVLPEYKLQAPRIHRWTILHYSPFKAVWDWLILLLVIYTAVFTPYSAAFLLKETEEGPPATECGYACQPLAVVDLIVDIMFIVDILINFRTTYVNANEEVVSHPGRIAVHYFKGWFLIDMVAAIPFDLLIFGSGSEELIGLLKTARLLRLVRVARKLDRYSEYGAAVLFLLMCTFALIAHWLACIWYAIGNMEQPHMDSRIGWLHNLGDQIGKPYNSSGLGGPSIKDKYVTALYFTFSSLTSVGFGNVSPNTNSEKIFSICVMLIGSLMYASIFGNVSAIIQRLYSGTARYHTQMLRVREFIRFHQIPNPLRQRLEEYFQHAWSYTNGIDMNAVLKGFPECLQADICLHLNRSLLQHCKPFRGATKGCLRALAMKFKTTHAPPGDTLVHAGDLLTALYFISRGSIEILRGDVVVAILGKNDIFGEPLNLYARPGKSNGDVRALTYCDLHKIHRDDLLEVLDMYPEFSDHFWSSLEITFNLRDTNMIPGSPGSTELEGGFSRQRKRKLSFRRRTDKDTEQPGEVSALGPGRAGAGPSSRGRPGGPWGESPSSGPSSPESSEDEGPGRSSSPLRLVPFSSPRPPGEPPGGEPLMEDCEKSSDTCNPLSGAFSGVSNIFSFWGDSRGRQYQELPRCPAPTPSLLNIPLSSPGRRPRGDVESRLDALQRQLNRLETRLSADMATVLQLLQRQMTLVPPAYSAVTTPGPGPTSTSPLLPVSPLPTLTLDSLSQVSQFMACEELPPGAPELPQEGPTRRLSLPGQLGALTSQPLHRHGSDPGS

Compound	MIC (Staphylococcus aureus [1]; [8]) [µg/mL]	MIC (Staphylococcus aureus [2]; [9]) [µg/mL]	MIC (Streptococcus pneumoniae; [10]) [µg/mL]	MIC (Enterococcus faecium; [11]) [µg/mL]	MIC (Escherichia coli; [12]) [µg/mL]	MIC (Acinetobacter baumannii; [13]) [µg/mL]	MIC (Pseudomonas aeruginosa; [14]) [µg/mL]	IC50 [4] [µM]	Ratio (Staphylococcus aureus [5])	also measured
COc1ccc2ncc(F)c(C(=O)CC34CCC(NCc5ccc6c(n5)NC(=O)CO6)(CC3)CO4)c2n1	0.06 (≈ 0.118 µM)	0.06 (≈ 0.118 µM)	0.25 (≈ 0.493 µM)	2 (≈ 3.94 µM)	4 (≈ 7.88 µM)	1 (≈ 1.97 µM)	32 (≈ 63.1 µM)	1.2	<4	IC50 [3]: 3.7 µM
COc1ccc2ncc(F)c(CC(N)C34CCC(NCc5ccc6c(n5)NC(=O)CO6)(CC3)CO4)c2n1.Cl (stereo in doubt)	–	–	–	–	–	–	–	–	–	ED50 (Staphylococcus aureus [6]): 11 mg/kg; ED50 (Staphylococcus aureus [7]): 21 mg/kg
COc1ccc2ncc(F)c(CC(OCCO)C34CCC(NCc5ccc6c(n5)NC(=O)CO6)(CC3)CO4)c2n1 (racemic)	2 (≈ 3.61 µM)	2 (≈ 3.61 µM)	8 (≈ 14.5 µM)	32 (≈ 57.8 µM)	32 (≈ 57.8 µM)	32 (≈ 57.8 µM)	32 (≈ 57.8 µM)	–	–	–
COc1ccc2ncc(F)c(C[C@H](O)C34CCC(NCc5ccc6c(n5)NC(=O)CO6)(CC3)CO4)c2n1.Cl	–	–	–	–	–	–	–	–	–	ED50 (Staphylococcus aureus [6]; Staphylococcus aureus, iv, read-out: ED50): 2.5 mg/kg; ED50 (Staphylococcus aureus [7]; Staphylococcus aureus, po, read-out: ED50): 2.2 mg/kg
COc1ccc2ncc(F)c([C@@H](O)[C@H](O)C34CCC(NCc5ccc6c(n5)NC(=O)CO6)(CC3)CO4)c2n1	0.25 (≈ 0.476 µM)	0.25 (≈ 0.476 µM)	2 (≈ 3.81 µM)	8 (≈ 15.2 µM)	16 (≈ 30.4 µM)	2 (≈ 3.81 µM)	32 (≈ 60.9 µM)	60	<4	–
COc1ccc2ncc(F)c([C@@H]3OC(=O)O[C@H]3C34CCC(NCc5ccc6c(n5)NC(=O)CO6)(CC3)CO4)c2n1 (single isomer, unassigned; (-))	0.25 (≈ 0.453 µM)	0.25 (≈ 0.453 µM)	2 (≈ 3.63 µM)	8 (≈ 14.5 µM)	16 (≈ 29 µM)	16 (≈ 29 µM)	16 (≈ 29 µM)	4.9	<4	–
COc1ccc2ncc(F)c(C(O)CC34CCC(NCc5ccc6c(n5)NC(=O)CO6)(CC3)CO4)c2n1 (single isomer, unassigned; (-))	–	–	–	–	–	–	–	1.3	–	MIC (Staphylococcus aureus [1]): 0.03 µg/mL (≈ 0.0589 µM); MIC (Staphylococcus aureus [2]): 0.03 µg/mL (≈ 0.0589 µM); MIC (Streptococcus pneumoniae): 0.25 µg/mL (≈ 0.491 µM); MIC (Enterococcus faecium): 2 µg/mL (≈ 3.93 µM); MIC (Escherichia coli): 4 µg/mL (≈ 7.85 µM); MIC (Acinetobacter baumannii): 1 µg/mL (≈ 1.96 µM); MIC (Pseudomonas aeruginosa): 16 µg/mL (≈ 31.4 µM)
COc1ccc2ncc(F)c(CC(OCC(=O)O)C34CCC(NCc5ccc6c(n5)NC(=O)CO6)(CC3)CO4)c2n1 (racemic)	4 (≈ 7.05 µM)	4 (≈ 7.05 µM)	32 (≈ 56.4 µM)	32 (≈ 56.4 µM)	32 (≈ 56.4 µM)	32 (≈ 56.4 µM)	32 (≈ 56.4 µM)	–	–	–
COc1ccc2ncc(F)c(CCC34CCC(NCc5ccc6c(n5)NC(=O)CO6)(CC3)CO4)c2n1	–	–	–	–	–	–	–	–	2	–
COc1ccc2ncc(F)c(CC(N)C34CCC(NCc5ccc6c(n5)NC(=O)CO6)(CC3)CO4)c2n1 (single isomer, unassigned; (-))	–	–	–	–	–	–	–	–	–	MIC (Staphylococcus aureus [1]): 0.13 µg/mL (≈ 0.256 µM); MIC (Staphylococcus aureus [2]): 0.13 µg/mL (≈ 0.256 µM); MIC (Streptococcus pneumoniae): 2 µg/mL (≈ 3.93 µM); MIC (Enterococcus faecium): 4 µg/mL (≈ 7.87 µM); MIC (Escherichia coli): 1 µg/mL (≈ 1.97 µM); MIC (Acinetobacter baumannii): 0.25 µg/mL (≈ 0.492 µM); MIC (Pseudomonas aeruginosa): 8 µg/mL (≈ 15.7 µM)
COc1ccc2ncc(F)c([C@H]3OC(=O)O[C@@H]3C34CCC(NCc5ccc6c(n5)NC(=O)CO6)(CC3)CO4)c2n1 (single isomer, unassigned; (+))	2 (≈ 3.63 µM)	2 (≈ 3.63 µM)	16 (≈ 29 µM)	16 (≈ 29 µM)	16 (≈ 29 µM)	16 (≈ 29 µM)	16 (≈ 29 µM)	11.2	<4	–
COc1ccc2ncc(F)c(CC(O)(C(F)(F)F)C34CCC(NCc5ccc6c(n5)NC(=O)CO6)(CC3)CO4)c2n1 (racemic)	0.5 (≈ 0.866 µM)	0.5 (≈ 0.866 µM)	4 (≈ 6.93 µM)	32 (≈ 55.4 µM)	32 (≈ 55.4 µM)	32 (≈ 55.4 µM)	32 (≈ 55.4 µM)	–	–	–
COc1ccc2ncc(F)c(C[C@H](OC)C34CCC(NCc5ccc6c(n5)NC(=O)CO6)(CC3)CO4)c2n1	0.25 (≈ 0.477 µM)	0.25 (≈ 0.477 µM)	2 (≈ 3.82 µM)	8 (≈ 15.3 µM)	16 (≈ 30.6 µM)	8 (≈ 15.3 µM)	16 (≈ 30.6 µM)	–	–	–
COc1ccc2ncc(F)c(CC(N)C34CCC(NCc5ccc6c(n5)NC(=O)CO6)(CC3)CO4)c2n1.Cl (single isomer, unassigned; (+))	–	–	–	–	–	–	–	–	–	ED50 (Staphylococcus aureus [6]): 25 mg/kg; ED50 (Staphylococcus aureus [7]): 50 mg/kg
COc1ccc2ncc(F)c(CC(NS(C)(=O)=O)C34CCC(NCc5ccc6c(n5)NC(=O)CO6)(CC3)CO4)c2n1 (racemic)	32 (≈ 54.5 µM)	32 (≈ 54.5 µM)	32 (≈ 54.5 µM)	32 (≈ 54.5 µM)	32 (≈ 54.5 µM)	32 (≈ 54.5 µM)	32 (≈ 54.5 µM)	–	–	–
COc1ccc2ncc(F)c(CC(=O)C34CCC(NCc5ccc6c(n5)NC(=O)CO6)(CC3)CO4)c2n1	0.13 (≈ 0.256 µM)	0.13 (≈ 0.256 µM)	0.25 (≈ 0.493 µM)	4 (≈ 7.88 µM)	16 (≈ 31.5 µM)	2 (≈ 3.94 µM)	16 (≈ 31.5 µM)	–	–	–

Source: ChEMBL document CHEMBL3751822, “C1C2-linker substituted 1,5-naphthyridine analogues of oxabicyclooctane-linked NBTIs as broad-spectrum antibacterial agents (part 7)” (Medchemcomm, 2015)
